Measurements as given in patent US11407783B2, “Triptolide derivative and preparation method therefor and use thereof” (priority 2018, dated 2022).
Read-outs that look alike come from different tables or passages of the source.

Tests used:
[1] = tested on: mouse B lymphocytes induced by LPS; assay: In vitro immunosuppressive activity, spleen lymphocyte proliferation (3H-thymidine), LPS-induced; type: cell-based, BALB/c mice; settings: read-out: IC50 (μM) mouse B lymphocytes induced by LPS
Protocol: (§1) Preparation of Mouse Spleen Lymphocyte
(§2) BALB/c mice were sacrificed by spinal dislocation, and their spleen was aseptically taken out. A single cell suspension was prepared and adjusted to the required concentration.
(§3) A suspension of 4×10^6 cells/ml spleen lymphocytes was routinely prepared and 100 μL of cells was added into each well of a 96-well plate. 50 μL test sample in different concentrations was added and ConA (final concentration 5 μg/mL) was added to induce T lymphocyte activation and proliferation, or LPS (final concentration 10 μg/mL) (50 μL) was added to induce B lymphocyte activation and proliferation. The corresponding positive control and non-stimulating background control were set. The cells were cultured in 37° C., 5% CO2 incubator for 48 h. 0.25 μCi ^3H-thymidine was introduced and the cultivation was completed after 8 h. At the end of the cultivation, the culture plate was frozen at −20° C. in a freezer until measurement. The cells were collected on a glass fiber membrane with a cell harvester and then scintillation solution was added. The amount of ^3H-thymine nucleotides incorporated into the cells' DNA was read on a Beta counter. The cell proliferation was represented by the cpm value.

[2] = tested on: mouse T lymphocytes induced by ConA; assay: In vitro immunosuppressive activity, spleen lymphocyte proliferation (3H-thymidine), ConA-induced; type: cell-based, BALB/c mice; settings: read-out: IC50 (μM) mouse T lymphocytes induced by ConA
Protocol: as §1, §2, §3

[3] = tested on: PC-3 (human prostate cancer cell); assay: In vitro antitumor activity, CellTiter-Glo cell viability, 48 h; type: cell-based; settings: read-out: Relative IC50 (μM) PC-3
Protocol: (§4) Tumor cells included AsPC-1 (human pancreatic cancer cell), PC-3 (human prostate cancer cell), and SK-OV-3 (human ovarian cancer cell).
(§5) Triptolide was used as a positive control; the working concentrations of the test drug were 1 μM, 0.33 μM, 0.11 μM, […], 0.012 μM, 0.004 μM, 1.4 nM, and 0.46 nM. After the tumor cells were revived, they were resuspended in the corresponding complete medium, placed in 5% CO2, and cultured at 37° C. The tumor cells at the logarithmic growth stage were suspended in the corresponding complete medium to adjust the cell concentration. 90 μL of cell suspension was added into each well. The cells were incubated at 37° C. in 5% CO2 overnight. Each concentration of the test drug was added and the cells were further cultured for 48 hours. Finally. Promega CellTiter-Glo Luminescent Cell Viability Assay Kit was used for detection.

[4] = tested on: SK-OV-3 (human ovarian cancer cell); assay: as above; type: cell-based; settings: read-out: Relative IC50 (μM) SK-OV-3
Protocol: as §4, §5

[5] = tested on: AsPC-1 (human pancreatic cancer cell); assay: as above; type: cell-based; settings: read-out: Relative IC50 (μM) AsPC-1
Protocol: as §4, §5

[6] = Body weight, mortality and toxicity in AsPC-1 tumor-bearing nude mice; type: in vivo, male nude mice; settings: emulsions
Protocol: Human pancreatic cancer cell AsPC-1 was subcutaneously inoculated on the right abdominal side of male nude mice. Tumor-bearing mice were randomly divided into 5 groups: negative control group (Control, n=8, blank emulsion, i.p./i.v., qd); Triptolide group (Triptolide, n=8, 0.25 mg/kg, i.v., qd); positive control group (Gemcitabine, n=8, 50 mg/kg, i.p., tiw); CK21S-005 emulsion group (CK21S-005 emulsion, n=8, 5 mg/kg, i.p./i.v., qd); and CK21S-005 emulsion group (CK21S-005 emulsion, n=8, 2.5 mg/kg, i.p./i.v., qd). Mice were administered in groups until the end of the experiment. The changes in tumor size and tumor-bearing mouse weight over time were monitored during the 2-week administration period, and tumors were weighed at the end of the experiment to comprehensively evaluate the inhibitory effect of the drug CK21S-005 on tumor growth.
The preparation method of the emulsion was as follows. A prescribed amount of injection oil was weighed and heated to 70-90° C. A prescribed amount of raw material was weighed, dispersed in the oil phase and completely dissolved under shear-stirring to form an oil phase. A prescribed amount of injection water was weighed and heated to 70° C. A prescribed amount of phospholipid, co-emulsifier, glycerin, etc. were added and dispersed under shear to form an aqueous phase. […]

[7] = LPS 10 μg/mL, 48 h, 3H-thymidine
[8] = ConA 5 μg/mL, 48 h, 3H-thymidine
[9] = SK-OV-3, 48 hours, CellTiter-Glo
[10] = ASPC1, AsPC-1, 48 hours, CellTiter-Glo

Compound: CC(C)[C@]12O[C@H]1[C@@H]1O[C@]13[C@]1(O[C@H]1C[C@H]1C4=C(CC[C@@]13C)C(=O)O/C4=C(/OC(=O)c1ccco1)c1ccccc1)[C@@H]2OC(=O)OC(C)(C)C [CK21S-001-b]
- IC50 [1]: 0.01 µM
- IC50 [2]: 0.011 µM
- IC50 ([3]; 48 h): 0.029 µM
- IC50 ([4]; SK-OV-3, 48 h): 0.048 µM
- IC50 ([5]; ASPC1, 48 h): 0.03 µM

Compound: CC(C)[C@]12O[C@H]1[C@@H]1O[C@]13[C@]1(O[C@H]1C[C@H]1C4=C(CC[C@@]13C)C(=O)O/C4=C(/OC(=O)c1ccco1)c1ccccc1)[C@@H]2O [CK21S-001]
- IC50 [1, 7]: 0.006 µM
- IC50 [2, 8]: 0.008 µM
- IC50 ([3]; PC-3, 48 hours, CellTiter-Glo): 0.022 µM
- IC50 [4, 9]: 0.042 µM
- IC50 [5, 10]: 0.028 µM

Compound: COc1ccc(C(=O)O/C(=C2/OC(=O)C3=C2[C@@H]2C[C@@H]4O[C@@]45[C@H](OC(=O)OC(C)(C)C)[C@@]4(C(C)C)O[C@H]4[C@@H]4O[C@@]45[C@@]2(C)CC3)c2ccc(OC)cc2)cc1 [CK21S-002-b]
- IC50 [1]: 0.01 µM
- IC50 [2]: 0.012 µM
- IC50 ([3]; 48 h): 0.042 µM
- IC50 ([4]; SK-OV-3, 48 h): 0.057 µM
- IC50 ([5]; ASPC1, 48 h): 0.042 µM

Compound: COc1ccc(C(=O)O/C(=C2/OC(=O)C3=C2[C@@H]2C[C@@H]4O[C@@]45[C@H](O)[C@@]4(C(C)C)O[C@H]4[C@@H]4O[C@@]45[C@@]2(C)CC3)c2ccc(OC)cc2)cc1 [CK21S-002]
- IC50 [1, 7]: 0.02 µM
- IC50 [2, 8]: 0.021 µM
- IC50 ([3]; PC-3, 48 hours, CellTiter-Glo): 0.056 µM
- IC50 [4, 9]: 0.07 µM
- IC50 [5, 10]: 0.071 µM

Compound: CC(C)[C@]12O[C@H]1[C@@H]1O[C@]13[C@]1(O[C@H]1C[C@H]1C4=C(CC[C@@]13C)C(=O)O/C4=C(/OC(=O)c1ccc(C(F)(F)F)cc1)c1ccc(C(F)(F)F)cc1)[C@@H]2OC(=O)OC(C)(C)C [CK21S-003-b]
- IC50 [1]: 0.005 µM
- IC50 [2]: 0.006 µM
- IC50 ([3]; 48 h): 0.021 µM
- IC50 ([4]; SK-OV-3, 48 h): 0.029 µM
- IC50 ([5]; ASPC1, 48 h): 0.02 µM

Compound: CC(C)[C@]12O[C@H]1[C@@H]1O[C@]13[C@]1(O[C@H]1C[C@H]1C4=C(CC[C@@]13C)C(=O)O/C4=C(/OC(=O)c1ccc(C(F)(F)F)cc1)c1ccc(C(F)(F)F)cc1)[C@@H]2O [CK21S-003]
- IC50 [1, 7]: 0.004 µM
- IC50 [2, 8]: 0.006 µM
- IC50 ([3]; PC-3, 48 hours, CellTiter-Glo): 0.018 µM
- IC50 [4, 9]: 0.028 µM
- IC50 [5, 10]: 0.014 µM

Compound: CC(C)[C@]12O[C@H]1[C@@H]1O[C@]13[C@]1(O[C@H]1C[C@H]1C4=C(CC[C@@]13C)C(=O)O/C4=C(/OC(=O)c1ccco1)c1ccco1)[C@@H]2OC(=O)OC(C)(C)C [CK21S-004-b]
- IC50 [1]: 0.025 µM
- IC50 [2]: 0.03 µM
- IC50 ([3]; 48 h): 0.045 µM
- IC50 ([4]; SK-OV-3, 48 h): 0.129 µM
- IC50 ([5]; ASPC1, 48 h): 0.096 µM

Compound: CC(C)[C@]12O[C@H]1[C@@H]1O[C@]13[C@]1(O[C@H]1C[C@H]1C4=C(CC[C@@]13C)C(=O)O/C4=C(/OC(=O)c1ccco1)c1ccco1)[C@@H]2O [CK21S-004]
- IC50 [1, 7]: 0.009 µM
- IC50 [2, 8]: 0.012 µM
- IC50 ([3]; PC-3, 48 hours, CellTiter-Glo): 0.023 µM
- IC50 [4, 9]: 0.118 µM
- IC50 [5, 10]: 0.038 µM

Compound: CC(C)[C@]12O[C@H]1[C@@H]1O[C@]13[C@]1(O[C@H]1C[C@H]1C4=C(CC[C@@]13C)C(=O)O/C4=C(/OC(=O)c1ccccc1)c1ccccc1)[C@@H]2OC(=O)OC(C)(C)C [CK21S-005-b]
- IC50 [1, 7]: 0.009 µM
- IC50 [2, 8]: 0.011 µM
- IC50 ([3]; PC-3, 48 hours, CellTiter-Glo): 0.035 µM
- IC50 [4, 9]: 0.04 µM
- IC50 [5, 10]: 0.042 µM

Compound: CC(C)[C@]12O[C@H]1[C@@H]1O[C@]13[C@]1(O[C@H]1C[C@H]1C4=C(CC[C@@]13C)C(=O)O/C4=C(/OC(=O)c1ccccc1)c1ccccc1)[C@@H]2O [CK21S-005]
- IC50 [1]: 0.01 µM
- Safety compared with triptolide [6]: better than that of triptolide
- IC50 [2]: 0.012 µM
- IC50 ([3]; 48 h): 0.03 µM
- IC50 ([4]; SK-OV-3, 48 h): 0.041 µM
- IC50 ([5]; ASPC1, 48 h): 0.04 µM

Compound: CC(C)[C@]12O[C@H]1[C@@H]1O[C@]13[C@]1(O[C@H]1C[C@H]1C4=C(CC[C@@]13C)C(=O)O/C4=C(/OC(=O)C1CCCCC1)c1ccccc1)[C@@H]2OC(=O)OC(C)(C)C [CK21S-006-b]
- IC50 [1]: 0.015 µM
- IC50 [2]: 0.016 µM
- IC50 ([3]; 48 h): 0.034 µM
- IC50 ([4]; SK-OV-3, 48 h): 0.045 µM
- IC50 ([5]; ASPC1, 48 h): 0.036 µM

Compound: CC(C)[C@]12O[C@H]1[C@@H]1O[C@]13[C@]1(O[C@H]1C[C@H]1C4=C(CC[C@@]13C)C(=O)O/C4=C(/OC(=O)C1CCCCC1)c1ccccc1)[C@@H]2O [CK21S-006]
- IC50 [1, 7]: 0.008 µM
- IC50 [2, 8]: 0.01 µM
- IC50 ([3]; PC-3, 48 hours, CellTiter-Glo): 0.031 µM
- IC50 [4, 9]: 0.041 µM
- IC50 [5, 10]: 0.035 µM

Compound: CC(C)[C@]12O[C@H]1[C@@H]1O[C@@]13[C@@]1(C)CCC4=C(/C(=C(\OC(=O)c5ccccc5)c5ccccc5)OC4=O)[C@@H]1C[C@@H]1O[C@@]13C2=O [CK21S-007]
- IC50 [1, 7]: 0.017 µM
- IC50 [2, 8]: 0.015 µM
- IC50 ([3]; PC-3, 48 hours, CellTiter-Glo): 0.043 µM
- IC50 [4, 9]: 0.05 µM
- IC50 [5, 10]: 0.049 µM

Compound: CC(C)[C@]12O[C@H]1[C@@H]1O[C@@]13[C@@]1(C)CCC4=C(/C(=C(\OC(=O)c5ccccc5)c5ccccc5)OC4=O)[C@@H]1C[C@@H]1O[C@@]13C2F (stereo partly drawn) [CK21S-008]
- IC50 [1, 7]: 0.009 µM
- IC50 [2, 8]: 0.01 µM
- IC50 ([3]; PC-3, 48 hours, CellTiter-Glo): 0.03 µM
- IC50 [4, 9]: 0.038 µM
- IC50 [5, 10]: 0.035 µM

Compound: CC(C)[C@]12O[C@H]1[C@@H]1O[C@]13[C@]1(O[C@H]1C[C@H]1C4=C(CC[C@@]13C)C(=O)O/C4=C(/OC(=O)c1ccccc1)c1ccccc1)[C@@H]2OCOP(=O)(O)O [CK21S-009]
- IC50 [1, 7]: 0.008 µM
- IC50 [2, 8]: 0.008 µM
- IC50 ([3]; PC-3, 48 hours, CellTiter-Glo): 0.027 µM
- IC50 [4, 9]: 0.032 µM
- IC50 [5, 10]: 0.03 µM

Compound: CC(C)[C@]12O[C@H]1[C@@H]1O[C@]13[C@]1(O[C@H]1C[C@H]1C4=C(CC[C@@]13C)C(=O)OC4)[C@@H]2O [Triptolide, triptolide]
- IC50 [1, 7]: 0.004 µM
- IC50 [2, 8]: 0.005 µM
- IC50 ([3]; PC-3, 48 hours, CellTiter-Glo): 0.014 µM
- IC50 [4, 9]: 0.016 µM
- IC50 [5, 10]: 0.014 µM
